In US20240182460A1, “ALLOSTERIC CHROMENONE INHIBITORS OF PHOSPHOINOSITIDE 3-KINASE (PI3K) FOR THE TREATMENT OF DISEASE” (PETRA PHARMA CORPORATION, priority 2022, published 2024):

Columns and labels:
PI3Kα E545K [1] = target: T1, PI3Kα E545K (Homo sapiens, UniProt P42336, E545K); assay: PI3Kα E545K mutant in vitro cell based assay, MCF-7 cells; conditions: MCF-7 cell line, 0% FBS, 3 hours treatment
Text: PI3K-Alpha Kinase (PI3Kα) Activity: Wild-Type PI3Kα, H1047R Mutant PI3Kα, and E545K Mutant PI3Kα In Vitro Cell Based Assays and Determination of IC50 Values for Inhibitors
The MDA-MB-453 (ATCC-HTB-131) cell line (PI3Kα H1047R) and MCF-7 (ATCC-HTB-22) cell line (PI3Kα E545K), MDA-MB-361 (ATCC-HTB-27) cell line (PI3Kα E545K), and SKBR3 (ATCC-HTB-30) cell line (wild type PI3Kα) were obtained from the American Type Culture Collection (Manassas, VA). MDA-MB-453 cells were maintained in Dulbecco's Modified Eagle Media (DMEM, Gibco 12430) supplemented with 10% Fetal Bovine Serum, heat inactivated (FBS HI, Gibco 10082), 1× non-essential amino acids (NEAA, Gibco 11140), 1 mM sodium pyruvate (Gibco 11360) and 1× Anti-Anti (Gibco 15240). MCF-7 cells were maintained in Minimum Essential Media (MEM) (Gibco 11095) supplemented with 10% Fetal Bovine Serum, heat inactivated (FBS HI, Gibco 10082), 1× non-essential amino acids (NEAA, Gibco 11140), 1 mM sodium pyruvate (Gibco 11360), 1× Anti-Anti (Gibco 15240) and 10 μg/mL human insulin (Sigma I 9278). MDA-MB-361 cells were maintained in Dulbecco's Modified Eagle Media (DMEM, Gibco 12430) supplemented with 20% Fetal Bovine Serum, heat inactivated (FBS HI, Gibco 10082), 1× non-essential amino acids (NEAA, Gibco 11140), 1 mM sodium pyruvate (Gibco 11360) and 1× Anti-Anti (Gibco 15240). SKBR3 cells were maintained in McCoy's 5A (Gibco 16600) supplemented with 10% Fetal Bovine Serum, heat inactivated (FBS HI, Gibco 10082), and 1× Anti-Anti (Gibco 15240). Cultures were maintained in a humidified incubator at 37° C. under 5% CO2/95% air.
For compound testing in 0% FBS, MDA-MB-453, MCF-7 and SKBR3 cells were seeded at a density of 1.5×10^4, 1.0×10^4, and 1.0×10^4 cells, respectively, per well in white 384-well plates in 20 μl of Minimum Essential Media (MEM) assay media with 1×NEAA, 1 mM sodium pyruvate, and 1 μg/mL human insulin (Sigma 19278) (Assay Medium); while MDA-MB-361 cells were seeded at a density of 1.5×10^4 per well in white 384-well plates in 20 μl Assay Medium without insulin. After plating, cells were allowed to attach overnight. Compounds dissolved in 10 mM stock solutions in DMSO were serially diluted 1:3 in DMSO to generate a 10-point dilution series and plated using an acoustic liquid handler system (Echo 550 Series Liquid Handler, Labcyte). A 5× intermediate compound dilution plate in MEM with 1×NEAA and 1 mM sodium pyruvate (150 μM starting compound concentration in 1.5% DMSO) was then prepared. Five μl of the intermediate serially diluted compounds were added to the cell plate to final concentrations ranging from […] in 0.3% DMSO. 0.3% DMSO alone was used to establish the maximum (MAX) signal and GDC-0032 at a final concentration of 1 μM was used as a reference compound for the minimum (MIN) signal. After 3 hours treatment, the medium was removed, and the cells were lysed in 10 μL of 1× SureFire Lysis buffer with shaking for 10 minutes at room temperature. The Acceptor Mix (Reaction Buffer 1+Reaction Buffer 2+Activation Buffer+SureFire Ultra Acceptor Beads) was prepared by diluting Activation buffer 25-fold in combined Reaction Buffer 1 and Reaction Buffer 2.
The Acceptor beads were diluted 50-fold in the combined Reaction Buffers. Five μL of Acceptor Mix was added to each well, the plate was sealed and covered with foil and incubated for 1 hour at room temperature. The Donor Mix (dilution buffer+SureFire Ultra Donor Beads) was prepared by diluting Donor Beads 50-fold in dilution buffer. Five μL of the Donor Mix was added to each well and the plate sealed and covered with foil and incubated for 1-2 hours at room temperature in the dark. The plates were read on a Neo2 plate reader instrument from Biotek using standard AlphaLisa settings.
Compounds were tested in duplicate and the % inhibition at each compound concentration was used to generate two dose response curves. One IC50 was generated using average % inhibition at each compound concentration. […]

[2] = Metabolic stability and intrinsic clearance in human liver microsomes (MICS); format: in vitro ADME; conditions: human, microsomes, pH 7.4
Method in brief: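 Parent depletion by LC-MS/MS, run in duplicate, gave in vitro t1/2 from the slope of ln(% remaining) versus time, converted to CLint (μL/min/mg protein). Incubations: 1 μM compound, microsomes at 0.5 mg/mL, pH 7.4 phosphate, 37° C, ±1 mM NADPH, timepoints 0.5, 5, 15, 30, 60 min.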

PI3Kα E545K [3] = target: T1, PI3Kα E545K; assay: PI3Kα E545K mutant in vitro cell based assay, MDA-MB-361 cells; set-up: MDA-MB-361 (ATCC-HTB-27) cell line (PI3Kα E545K); host or cells: MDA-MB-361; conditions: MDA-MB-361 cell line, 0% FBS, no insulin, 3 hours treatment
Method in brief: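 Compound exposure lasted 3 hours, in duplicate 10-point 1:3 dilutions at 0.3% DMSO final, on overnight-attached MDA-MB-361 cells carrying PI3Kα E545K in insulin-free, 0% FBS MEM. Lysates read by SureFire AlphaLISA. Relative IC50 from 4-parameter logistic fit versus DMSO and 1 μM GDC-0032 controls.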

T1 sequence (P42336 whole entry E545K): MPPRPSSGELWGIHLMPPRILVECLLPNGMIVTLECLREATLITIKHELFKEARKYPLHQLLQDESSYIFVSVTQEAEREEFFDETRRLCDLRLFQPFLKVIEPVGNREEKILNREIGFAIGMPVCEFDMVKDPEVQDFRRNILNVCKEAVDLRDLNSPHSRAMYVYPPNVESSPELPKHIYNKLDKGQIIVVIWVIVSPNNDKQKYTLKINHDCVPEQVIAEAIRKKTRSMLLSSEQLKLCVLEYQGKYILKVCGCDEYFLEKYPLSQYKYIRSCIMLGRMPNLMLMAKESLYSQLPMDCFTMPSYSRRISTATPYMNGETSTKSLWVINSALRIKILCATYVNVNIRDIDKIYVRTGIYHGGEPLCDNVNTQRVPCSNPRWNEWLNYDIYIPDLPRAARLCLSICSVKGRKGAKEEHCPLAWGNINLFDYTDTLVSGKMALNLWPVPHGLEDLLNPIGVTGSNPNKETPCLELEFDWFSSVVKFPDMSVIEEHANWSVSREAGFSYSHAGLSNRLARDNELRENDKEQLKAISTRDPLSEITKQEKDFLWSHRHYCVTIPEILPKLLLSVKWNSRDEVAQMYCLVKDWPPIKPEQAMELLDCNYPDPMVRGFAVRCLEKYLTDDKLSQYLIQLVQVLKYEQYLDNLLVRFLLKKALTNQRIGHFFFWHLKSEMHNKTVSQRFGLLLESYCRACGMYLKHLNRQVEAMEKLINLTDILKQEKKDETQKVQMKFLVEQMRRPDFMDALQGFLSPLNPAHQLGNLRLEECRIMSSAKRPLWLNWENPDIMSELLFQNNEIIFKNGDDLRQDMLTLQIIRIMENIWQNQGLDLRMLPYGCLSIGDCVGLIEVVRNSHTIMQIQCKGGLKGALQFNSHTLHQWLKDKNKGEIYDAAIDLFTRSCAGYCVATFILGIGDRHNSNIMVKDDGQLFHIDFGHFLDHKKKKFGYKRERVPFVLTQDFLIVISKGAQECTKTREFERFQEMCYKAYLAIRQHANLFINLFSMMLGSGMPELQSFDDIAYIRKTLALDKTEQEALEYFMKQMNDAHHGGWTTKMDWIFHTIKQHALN
T1 sequence (P27986 whole entry partner): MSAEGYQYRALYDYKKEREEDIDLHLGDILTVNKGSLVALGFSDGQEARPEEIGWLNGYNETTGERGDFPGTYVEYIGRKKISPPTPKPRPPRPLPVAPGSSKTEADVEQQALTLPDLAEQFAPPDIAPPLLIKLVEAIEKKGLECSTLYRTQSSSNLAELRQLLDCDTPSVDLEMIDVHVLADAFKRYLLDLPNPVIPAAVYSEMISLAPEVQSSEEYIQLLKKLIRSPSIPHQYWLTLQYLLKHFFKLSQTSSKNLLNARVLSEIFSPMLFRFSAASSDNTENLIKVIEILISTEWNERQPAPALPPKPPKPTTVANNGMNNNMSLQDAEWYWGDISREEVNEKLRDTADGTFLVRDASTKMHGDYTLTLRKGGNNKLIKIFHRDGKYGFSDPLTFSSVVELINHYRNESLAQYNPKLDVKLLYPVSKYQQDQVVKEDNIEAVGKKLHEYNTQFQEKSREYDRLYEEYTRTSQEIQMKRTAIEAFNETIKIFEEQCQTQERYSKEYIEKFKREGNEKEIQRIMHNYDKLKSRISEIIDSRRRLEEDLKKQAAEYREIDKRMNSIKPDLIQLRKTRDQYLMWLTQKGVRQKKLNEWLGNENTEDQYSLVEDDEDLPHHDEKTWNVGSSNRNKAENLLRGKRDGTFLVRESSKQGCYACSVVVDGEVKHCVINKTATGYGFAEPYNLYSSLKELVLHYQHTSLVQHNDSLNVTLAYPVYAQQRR

Compound | IC50 (PI3Kα E545K [1]) [µM] | microsomal CLint at 1 μM [2] [µL/min/mg] | IC50 (PI3Kα E545K [3]) [µM]
Cc1cc([C@@H](C)Oc2ccc(Cl)nc2S(N)(=O)=O)c2oc(-c3ccc4nc(C)cn4n3)c(C)c(=O)c2c1 [Example 19C, 6-Chloro-3-[(1R)-1-[3,6-dimethyl-2-(2-methylimidazo[1,2-b]pyridazin-6-yl)-4-oxo-chromen-8-yl]ethoxy]pyridine-2-sulfonamide] | < 0.5 | < 50 | –
Cc1cc([C@@H](C)Oc2ccc(Cl)nc2C(N)=O)c2oc(-c3cncc(F)c3)c(C)c(=O)c2c1 [Example 20A, 6-Chloro-3-[(1R)-1-[2-(5-fluoro-3-pyridyl)-3,6-dimethyl-4-oxo-chromen-8-yl]ethoxy]pyridine-2-carboxamide] | < 0.5 | < 50 | –
CONC(=O)c1ncccc1O[C@H](C)c1cc(C)cc2c(=O)c(C)c(-c3ccc4nn(C)cc4c3)oc12 [Example 23A, 3-[(1R)-1-[3,6-Dimethyl-2-(2-methylindazol-5-yl)-4-oxo-chromen-8-yl]ethoxy]-N-methoxy-pyridine-2-carboxamide] | < 0.5 | < 50 | –
Cc1cc([C@@H](C)Oc2ccc(Cl)cc2S(N)(=O)=O)c2oc(-c3ccccc3)c(C)c(=O)c2c1 [Example 98C, 5-Chloro-2-[(1R)-1-(3,6-dimethyl-4-oxo-2-phenyl-chromen-8-yl)ethoxy]benzenesulfonamide] | < 0.5 | – | < 0.5
Cc1cc([C@@H](C)Oc2ccc(F)cc2S(N)(=O)=O)c2oc(C3CC3)c(C)c(=O)c2c1 [Example 107C, 2-[(1R)-1-(2-Cyclopropyl-3,6-dimethyl-4-oxo-chromen-8-yl)ethoxy]-5-fluoro-benzenesulfonamide] | < 0.5 | – | < 0.5
COCCn1cc(-c2oc3c([C@@H](C)Oc4ccc(Cl)nc4S(N)(=O)=O)cc(C)cc3c(=O)c2C)cn1 [Example 117C, 6-Chloro-3-[(1R)-1-[2-[1-(2-methoxyethyl)pyrazol-4-yl]-3,6-dimethyl-4-oxo-chromen-8-yl]ethoxy]pyridine-2-sulfonamide] | < 0.5 | – | < 0.5
Cc1cc([C@@H](C)Oc2ccc(Cl)nc2C(N)=O)c2oc(-c3ccc4c(c3)OCC(=O)N4C)c(C)c(=O)c2c1 [Example 119A, 6-Chloro-3-[(1R)-1-[3,6-dimethyl-2-(4-methyl-3-oxo-1,4-benzoxazin-7-yl)-4-oxo-chromen-8-yl]ethoxy]pyridine-2-carboxamide] | < 0.5 | – | < 0.5
Cc1cc([C@@H](C)Oc2ccc(Cl)nc2C(N)=O)c2oc(-c3ccc4nn(CCO)cc4c3)c(C)c(=O)c2c1 [Example 129C, 6-Chloro-3-[(1R)-1-[2-[2-(2-hydroxyethyl)indazol-5-yl]-3,6-dimethyl-4-oxo-chromen-8-yl]ethoxy]pyridine-2-carboxamide] | < 0.5 | – | < 0.5
Cc1cc([C@@H](C)Oc2ccc(Cl)nc2C(N)=O)c2oc(-c3ccc4nn(CC5(O)CC5)cc4c3)c(C)c(=O)c2c1 [Example 130C, 6-Chloro-3-[(1R)-1-[2-[2-[(1-hydroxycyclopropyl)methyl]indazol-5-yl]-3,6-dimethyl-4-oxo-chromen-8-yl]ethoxy]pyridine-2-carboxamide] | < 0.5 | – | < 0.5
Cc1cc([C@@H](C)Oc2ccc(Cl)nc2C(N)=O)c2oc(-c3ccc4nc(CCO)sc4c3)c(C)c(=O)c2c1 [Example 132C, 6-Chloro-3-[(1R)-1-[2-[2-(2-hydroxyethyl)-1,3-benzothiazol-6-yl]-3,6-dimethyl-4-oxo-chromen-8-yl]ethoxy]pyridine-2-carboxamide] | < 0.5 | – | < 0.5
Cc1cc([C@@H](C)Oc2ccc(Cl)nc2C(N)=O)c2oc(-c3ccc4nn([C@H]5C[C@@H](O)C5)cc4c3)c(C)c(=O)c2c1 [Example 133C, 6-Chloro-3-[(1R)-1-[2-[2-(3-hydroxycyclobutyl)indazol-5-yl]-3,6-dimethyl-4-oxo-chromen-8-yl]ethoxy]pyridine-2-carboxamide] | < 0.5 | – | < 0.5
